Bridge positions count the residues as written; N and C are the ends. Square brackets hold non-standard residues; d marks the D form. Peptide text beside a SMILES is read from it. * marks the point of attachment. ξ: configuration not given here. Bip = N[C@@H](Cc1ccc(-c2ccccc2)cc1)C(=O)O; Ala(2-furyl) = N[C@@H](Cc1ccco1)C(=O)O; Phe(3-Me) = Cc1cccc(C[C@H](N)C(=O)O)c1; Ala(4-THP) = N[C@@H](CC1CCOCC1)C(=O)O; Val(3-OH) = CC(C)(O)[C@H](N)C(=O)O; hhPhe = N[C@@H](CCCc1ccccc1)C(=O)O; Abu(4-CN) = N#CCC[C@H](N)C(=O)O; Cha = N[C@@H](CC1CCCCC1)C(=O)O; Cit = NC(=O)NCCC[C@H](N)C(=O)O; Thr(3ξ) = CC(O)[C@H](N)C(=O)O; Ala(CN) = N#CC[C@H](N)C(=O)O; dDab = NCC[C@@H](N)C(=O)O; Carboxymethyl = O=C(O)C*; Orn = NCCC[C@H](N)C(=O)O; Aun = NCCCCCCCCCCC(=O)O; Dab = NCC[C@H](N)C(=O)O

Results on 13 molecules are retold here after patent US20260022142A1, “MACROCYCLIC IMMUNOMODULATORS” (Bristol-Myers Squibb Company, priority 2022, published 2026).

T1 sequence (Q15116 25-288): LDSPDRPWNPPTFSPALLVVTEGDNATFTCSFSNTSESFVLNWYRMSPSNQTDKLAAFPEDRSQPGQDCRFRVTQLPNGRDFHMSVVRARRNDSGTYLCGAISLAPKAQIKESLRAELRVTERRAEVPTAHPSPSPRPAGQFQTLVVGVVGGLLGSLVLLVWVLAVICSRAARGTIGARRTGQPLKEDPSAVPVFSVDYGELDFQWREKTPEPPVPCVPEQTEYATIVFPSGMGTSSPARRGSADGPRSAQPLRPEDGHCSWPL

The assay concerns the target T1, PD-1/PD-L1 interaction (PE-labeled human PD-L1-Ig binding to Jurkat cell line over-expressing human PD-1) (Homo sapiens, UniProt Q15116).
T1 construct: expressed in transfected cells; host or cells: Jurkat
The assay is described as follows: Jurkat-PD-1 Cell Binding High-Content Screening Assay (CBA). The format is cell-based. Particulars: Jurkat cell line over-expressing human PD-1; PE-labeled PD-L1-Ig 20 nM final; read-out: Jurkat hPD1-PDL1 IC50. In short, it runs like this:
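Jurkat-hPD-1 cells, DMEM/10% FCS; cpd 2 h 37° C; PE-PD-L1-Ig 20 nM final, 1 h; 4% PFA fix + Hoechst 33342, 3× dPBS wash; high-content imaging read-out.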
As usually defined, the IC50 is the concentration that gives 50% inhibition. Turning to `CC(C)C[C@H]1NC(=O)[C@H](CCCN)NC(=O)[C@H](Cc2ccc(O)cc2)NC(=O)[C@H](Cc2ccc(-c3ccccc3)cc2)NC(=O)[C@H](C(C)C)NC(=O)[C@H](Cc2c[nH]c3ccccc23)NC(=O)[C@H](CC(=O)O)NC(=O)[C@H](Cc2ccc(OCC(=O)O)cc2)NC(=O)[C@H](C(C)(C)O)NC(=O)CSC[C@@H](C(=O)N[C@@H](CCN)C(=O)NCCCCCCCCCCC(=O)O)NC(=O)[C@H](C(C)O)NC(=O)[C@H](C(C)C)NC(=O)[C@H](CC2CCCCC2)NC(=O)[C@H](CCN)NC1=O` (stereo partly drawn) [Compound 3414] ({CH2CO}-[Val(3-OH)]Y(Carboxymethyl)DWV[Bip]Y[Orn][dL][Dab][Cha]V[Thr(3ξ)]C[Dab][Aun]-OH; thioether N-14), the IC50 was 0.0737 µM.
With `CC(C)C[C@H]1NC(=O)[C@H](CCCN)NC(=O)[C@H](Cc2ccc(O)cc2)NC(=O)[C@H](Cc2ccc(-c3ccccc3)cc2)NC(=O)[C@H](C(C)C)NC(=O)[C@H](Cc2c[nH]c3ccccc23)NC(=O)[C@H](CC(=O)O)NC(=O)[C@H](Cc2ccc(OCC(=O)O)cc2)NC(=O)[C@H](CCCNC(=N)N)NC(=O)CSC[C@@H](C(=O)N[C@@H](CCN)C(=O)NCCCCCCCCCCC(=O)O)NC(=O)[C@H](Cc2ccco2)NC(=O)[C@H](C(C)C)NC(=O)[C@H](CC2CCCCC2)NC(=O)[C@H](CCN)NC1=O` [Compound 3415] ({CH2CO}-RY(Carboxymethyl)DWV[Bip]Y[Orn][dL][Dab][Cha]V[Ala(2-furyl)]C[Dab][Aun]-OH; thioether N-14), the concentration for half-maximal inhibition (IC50) was 0.0736 µM.
Take `CC(C)C[C@H]1NC(=O)[C@H](CCCN)NC(=O)[C@H](Cc2ccc(O)cc2)NC(=O)[C@H](Cc2ccc(-c3ccccc3)cc2)NC(=O)[C@H](C(C)C)NC(=O)[C@H](Cc2c[nH]c3ccccc23)NC(=O)[C@H](CC(=O)O)NC(=O)[C@H](Cc2ccc(OCC(=O)O)cc2)NC(=O)[C@H](CCCNC(=N)N)NC(=O)CSC[C@@H](C(=O)N[C@@H](CCN)C(=O)NCCCCCCCCCCC(=O)O)NC(=O)[C@H](CCC#N)NC(=O)[C@H](C(C)C)NC(=O)[C@H](CC2CCCCC2)NC(=O)[C@H](CCN)NC1=O` [Compound 3418] ({CH2CO}-RY(Carboxymethyl)DWV[Bip]Y[Orn][dL][Dab][Cha]V[Abu(4-CN)]C[Dab][Aun]-OH; thioether N-14): the IC50 is 0.0362 µM.
For `Cc1cccc(C[C@@H]2NC(=O)[C@H](CC(=O)O)NC(=O)[C@H](Cc3ccc(OCC(=O)O)cc3)NC(=O)[C@H](CCCNC(=N)N)NC(=O)CSC[C@@H](C(=O)N[C@@H](CCN)C(=O)NCCCCCCCCCCC(=O)O)NC(=O)[C@H](C(C)O)NC(=O)[C@H](C(C)C)NC(=O)[C@H](CC3CCCCC3)NC(=O)[C@H](CCN)NC(=O)[C@@H](CC(C)C)NC(=O)[C@H](CCCN)NC(=O)[C@H](Cc3ccc(O)cc3)NC(=O)[C@H](Cc3ccc(-c4ccccc4)cc3)NC(=O)[C@H](CCCc3ccccc3)NC2=O)c1` (stereo partly drawn) [Compound 3420] ({CH2CO}-RY(Carboxymethyl)D[Phe(3-Me)][hhPhe][Bip]Y[Orn][dL][Dab][Cha]V[Thr(3ξ)]C[Dab][Aun]-OH; thioether N-14), the IC50 was 0.0609 µM.
`CC(C)C[C@H]1NC(=O)[C@H](CCCN)NC(=O)[C@H](Cc2ccc(O)cc2)NC(=O)[C@H](Cc2ccc(-c3ccccc3)cc2)NC(=O)[C@H](C(C)C)NC(=O)[C@H](Cc2c[nH]c3ccccc23)NC(=O)[C@H](CC(=O)O)NC(=O)[C@H](Cc2ccc(OCC(=O)O)cc2)NC(=O)[C@H](CC(N)=O)NC(=O)CSC[C@@H](C(=O)N[C@@H](CCN)C(=O)NCCCCCCCCCCC(=O)O)NC(=O)[C@H](C(C)O)NC(=O)[C@H](C(C)C)NC(=O)[C@H](CC2CCCCC2)NC(=O)[C@H](CCN)NC1=O` (stereo partly drawn) [Compound 3421] ({CH2CO}-NY(Carboxymethyl)DWV[Bip]Y[Orn][dL][Dab][Cha]V[Thr(3ξ)]C[Dab][Aun]-OH; thioether N-14): the IC50 was found to be 0.0336 µM.
For `CC(C)C[C@H]1NC(=O)[C@H](CCCN)NC(=O)[C@H](Cc2ccc(O)cc2)NC(=O)[C@H](Cc2ccc(-c3ccccc3)cc2)NC(=O)[C@H](C(C)C)NC(=O)[C@H](Cc2c[nH]c3ccccc23)NC(=O)[C@H](CC(=O)O)NC(=O)[C@H](Cc2ccc(OCC(=O)O)cc2)NC(=O)[C@H](C(C)O)NC(=O)CSC[C@@H](C(=O)N[C@H](CCN)C(=O)NCCCCCCCCCCC(=O)O)NC(=O)[C@H](Cc2ccco2)NC(=O)[C@H](C(C)C)NC(=O)[C@H](CC2CCCCC2)NC(=O)[C@H](CCN)NC1=O` (stereo partly drawn) [Compound 3422] ({CH2CO}-[Thr(3ξ)]Y(Carboxymethyl)DWV[Bip]Y[Orn][dL][Dab][Cha]V[Ala(2-furyl)]C[dDab][Aun]-OH; thioether N-14), the IC50 amounted to 0.0782 µM.
With `CC(C)C[C@H]1NC(=O)[C@H](CCCN)NC(=O)[C@H](Cc2ccc(O)cc2)NC(=O)[C@H](Cc2ccc(-c3ccccc3)cc2)NC(=O)[C@H](C(C)C)NC(=O)[C@H](Cc2c[nH]c3ccccc23)NC(=O)[C@H](CC(=O)O)NC(=O)[C@H](Cc2ccc(OCC(=O)O)cc2)NC(=O)[C@H](C(C)O)NC(=O)CSC[C@@H](C(=O)N[C@@H](CCN)C(=O)NCCCCCCCCCCC(=O)O)NC(=O)[C@H](CC2CCOCC2)NC(=O)[C@H](C(C)C)NC(=O)[C@H](CC2CCCCC2)NC(=O)[C@H](CCN)NC1=O` (stereo partly drawn) [Compound 3424] ({CH2CO}-[Thr(3ξ)]Y(Carboxymethyl)DWV[Bip]Y[Orn][dL][Dab][Cha]V[Ala(4-THP)]C[Dab][Aun]-OH; thioether N-14), the IC50 worked out at 0.133 µM.
`CC(C)C[C@H]1NC(=O)[C@H](CCCN)NC(=O)[C@H](Cc2ccc(O)cc2)NC(=O)[C@H](Cc2ccc(-c3ccccc3)cc2)NC(=O)[C@H](C(C)C)NC(=O)[C@H](Cc2c[nH]c3ccccc23)NC(=O)[C@H](CC(=O)O)NC(=O)[C@H](Cc2ccc(OCC(=O)O)cc2)NC(=O)[C@H](CC(N)=O)NC(=O)CSC[C@@H](C(=O)N[C@@H](CCN)C(=O)NCCCCCCCCCCC(=O)O)NC(=O)[C@H](CC#N)NC(=O)[C@H](C(C)C)NC(=O)[C@H](CC2CCCCC2)NC(=O)[C@H](CCN)NC1=O` [Compound 3425] ({CH2CO}-NY(Carboxymethyl)DWV[Bip]Y[Orn][dL][Dab][Cha]V[Ala(CN)]C[Dab][Aun]-OH; thioether N-14): the IC50 came out at 0.0548 µM.
As to `Cc1cccc(C[C@@H]2NC(=O)[C@H](CC(=O)O)NC(=O)[C@H](Cc3ccc(OCC(=O)O)cc3)NC(=O)[C@H](C(C)O)NC(=O)CSC[C@@H](C(=O)N[C@@H](CC(N)=O)C(=O)NCCCCCCCCCCC(=O)O)NC(=O)[C@H](CCCNC(N)=O)NC(=O)[C@H](C(C)C)NC(=O)[C@H](CC3CCCCC3)NC(=O)[C@H](CCN)NC(=O)[C@@H](CC(C)C)NC(=O)[C@H](CCCN)NC(=O)[C@H](Cc3ccc(O)cc3)NC(=O)[C@H](Cc3ccc(-c4ccccc4)cc3)NC(=O)[C@H](C(C)C)NC2=O)c1` (stereo partly drawn) [Compound 3426] ({CH2CO}-[Thr(3ξ)]Y(Carboxymethyl)D[Phe(3-Me)]V[Bip]Y[Orn][dL][Dab][Cha]V[Cit]CN[Aun]-OH; thioether N-14), the IC50 was 0.0107 µM.
In the case of `Cc1cccc(C[C@@H]2NC(=O)[C@H](CC(=O)O)NC(=O)[C@H](Cc3ccc(OCC(=O)O)cc3)NC(=O)[C@H](C(C)O)NC(=O)CSC[C@@H](C(=O)N[C@@H](CC(N)=O)C(=O)NCCCCCCCCCCC(=O)O)NC(=O)[C@H](C(C)O)NC(=O)[C@H](C(C)C)NC(=O)[C@H](CC3CCCCC3)NC(=O)[C@H](CCN)NC(=O)[C@@H](CC(C)C)NC(=O)[C@H](CCCN)NC(=O)[C@H](Cc3ccc(O)cc3)NC(=O)[C@H](Cc3ccc(-c4ccccc4)cc3)NC(=O)[C@H](C(C)C)NC2=O)c1` (stereo partly drawn) [Compound 3427] ({CH2CO}-[Thr(3ξ)]Y(Carboxymethyl)D[Phe(3-Me)]V[Bip]Y[Orn][dL][Dab][Cha]V[Thr(3ξ)]CN[Aun]-OH; thioether N-14), the IC50 came to 0.0168 µM.
With `Cc1cccc(C[C@@H]2NC(=O)[C@H](CC(=O)O)NC(=O)[C@H](Cc3ccc(OCC(=O)O)cc3)NC(=O)[C@H](C(C)O)NC(=O)CSC[C@@H](C(=O)N[C@H](CC(N)=O)C(=O)NCCCCCCCCCCC(=O)O)NC(=O)[C@H](CCC(N)=O)NC(=O)[C@H](C(C)C)NC(=O)[C@H](CC3CCCCC3)NC(=O)[C@H](CCN)NC(=O)[C@@H](CC(C)C)NC(=O)[C@H](CCCN)NC(=O)[C@H](Cc3ccc(O)cc3)NC(=O)[C@H](Cc3ccc(-c4ccccc4)cc3)NC(=O)[C@H](C(C)C)NC2=O)c1` (stereo partly drawn) [Compound 3428] ({CH2CO}-[Thr(3ξ)]Y(Carboxymethyl)D[Phe(3-Me)]V[Bip]Y[Orn][dL][Dab][Cha]VQC[dN][Aun]-OH; thioether N-14), the IC50 is 0.0098 µM.
On to `CC(C)C[C@H]1NC(=O)[C@H](CCCN)NC(=O)[C@H](Cc2ccc(O)cc2)NC(=O)[C@H](Cc2ccc(-c3ccccc3)cc2)NC(=O)[C@H](Cc2ccc(O)cc2)NC(=O)[C@H](Cc2c[nH]c3ccccc23)NC(=O)[C@H](CC(=O)O)NC(=O)[C@H](Cc2ccc(OCC(=O)O)cc2)NC(=O)[C@H](C(C)O)NC(=O)CSC[C@@H](C(=O)N[C@H](CC(N)=O)C(=O)NCCCCCCCCCCC(=O)O)NC(=O)[C@H](C(C)O)NC(=O)[C@H](C(C)C)NC(=O)[C@H](CC2CCCCC2)NC(=O)[C@H](CCN)NC1=O` (stereo partly drawn) [Compound 3429] ({CH2CO}-[Thr(3ξ)]Y(Carboxymethyl)DWY[Bip]Y[Orn][dL][Dab][Cha]V[Thr(3ξ)]C[dN][Aun]-OH; thioether N-14), for which the IC50 came to 0.0415 µM.
The value for `Cc1cccc(C[C@@H]2NC(=O)[C@H](CC(=O)O)NC(=O)[C@H](Cc3ccc(OCC(=O)O)cc3)NC(=O)[C@H](C(C)O)NC(=O)CSC[C@@H](C(=O)N[C@H](CC(N)=O)C(=O)NCCCCCCCCCCC(=O)O)NC(=O)[C@H](C(C)O)NC(=O)[C@H](C(C)C)NC(=O)[C@H](CC3CCCCC3)NC(=O)[C@H](CCN)NC(=O)[C@@H](CC(C)C)NC(=O)[C@H](CCCN)NC(=O)[C@H](CCC(N)=O)NC(=O)[C@H](Cc3ccc(-c4ccccc4)cc3)NC(=O)[C@H](C(C)C)NC2=O)c1` (stereo partly drawn) [Compound 3430] ({CH2CO}-[Thr(3ξ)]Y(Carboxymethyl)D[Phe(3-Me)]V[Bip]Q[Orn][dL][Dab][Cha]V[Thr(3ξ)]C[dN][Aun]-OH; thioether N-14) was 0.0076 µM.
